Earlier results as cited in PMC12285096, “Tirzepatide mitigates Stroke-Induced Blood-Brain barrier disruption by modulating Claudin-1 and C/EBP-α pathways” (Molecular Medicine, 2025).

Details: cited from earlier work; for BBB penetration (Kp, brain): limited BBB penetration of GLP-1 analogs, ref Rhea et al. [2024], Lee et al. [2023], Hunter and Hölscher [2012], Secher et al. [2014]

Row | Substance | Brain-to-plasma ratio (Kp, brain) (in vivo) | BBB penetration (Kp, brain)
1 | liraglutide | 0.03 ± 0.01 | 0.02–0.05
2 | semaglutide | – | 0.02–0.05
